Our source for the melting point values is a melting point compilation (Tetko et al.; mined from patent text by program, amines drawn as free bases though some values may be those of a salt).

Structures are written as SMILES.

Turning to `Cc1cc(Nc2c(C#N)cnc3cc(-c4csc(C5OCCO5)c4)ccc23)ccc1OCc1ccccn1`, the melting point lay in the range of 194 to 196 °C.

The compound `CCCCN1C(N)=NC(Oc2cccc(C)c2)=NS1(=O)=O` yielded a melting point of 169 to 171 °C.

On to `CC(C)Oc1c(Br)c(Br)n(Cc2ccccc2)c1C(=O)Nc1nnn[nH]1`, for which the melting point fell in the range of 199 to 205 °C.

`O=C(C=C(c1cc(Cl)cc(Cl)c1)C(F)(F)F)c1ccc(C(=O)Nc2ncc(Cl)cn2)cc1` came in with a melting point of 71 to 76 °C.

As for `CN(C)C(N)=Nc1cc(C(F)(F)F)ccc1N1CCOCC1`, the melting point fell in the range of 132 to 135 °C.

Consider `CN(C)c1nc(Br)cnc1N`, for which the melting point stood at 145 °C.

Take `Cn1cc(C2=C(c3c4n(c5ccccc35)CC(CCO)CC4)C(=O)NC2=O)c2ccccc21` (stereo unspecified): the melting point lay within 236 to 238 °C.

On to `O=C1NC(c2ccccc2)(c2ccccc2)C(=O)N1CCl`, for which the melting point lay within 161 to 162 °C.

The compound `O=CN1CC2CCCc3c(C(=O)CCCl)ccc1c32` (stereo unspecified) registered a melting point of 82 to 85 °C.

`Oc1cc(C(F)CBr)c2oc(-c3ccc(O)c(F)c3)nc2c1` (stereo unspecified) came in with a melting point of 185 to 186 °C.

For `COCCCNS(=O)(=O)NC(=O)OCc1ccccc1`, the melting point fell in the range of 91 to 93 °C.

In the case of `O=C1Cc2ccc(Cl)cc2C(c2ccccc2)C1` (stereo unspecified), the melting point lay within 61 to 62 °C.

In turn, `C[C@H](COS(C)(=O)=O)NC(=O)OC(C)(C)C` gave a melting point of 65 to 68 °C.

With `CCc1nc(C)c(C(=O)OC(C)OC(=O)C(C)(C)OC)n1Cc1ccc2oc(-c3ccccc3-c3nnn[nH]3)c(Br)c2c1` (stereo unspecified), the melting point was in the range of 135 to 140 °C.

Compound `COc1ccc(S(=O)(=O)Nc2ccccc2NC(=O)c2cc(C)nc(Cl)c2)cc1` gave a melting point of 150 to 151 °C.

Compound `N#CNC(=Nc1ccncc1)NCCCCOc1ccccc1` displayed a melting point of 131 °C.

Turning to `O=c1[nH]c2cc([N+](=O)[O-])c3c(c2[nH]c1=O)CN(S(=O)(=O)c1cccs1)CC3`, the melting point is > 300 °C.

Regarding `CN(C)[C@H]1CCN(C(=O)c2ccc(Cc3cn(C)c4ccccc34)cc2)C1`, the melting point lay in the range of 101 to 105 °C.

Compound `COc1ccc(-n2nc(C(C)(C)C)cc2NC(=O)c2cccc3cc(Oc4cc(Cl)ncn4)ccc23)cc1` gave a melting point of 163 to 164 °C.

Take `CC(C)(C)COc1ccc(-n2cc(C(=O)O)cn2)cc1C#N`: the melting point lay in the range of 199 to 200 °C.

As for `N#CC(OC1OC2C(Br)C3CC1C2C3)c1cccc(Oc2ccccc2)c1` (stereo unspecified), the melting point was 65 °C.

In turn, `CCCCCCCCc1nc2c(N)nc3ccccc3c2n1CCOCCCc1ccccc1` registered a melting point of 104 °C.

For `O=C(Cc1ccccc1)c1cccnc1`, the melting point lay in the range of 61 to 62 °C.

`C=CCc1c(C)cc(C)cc1O` displayed a melting point of 51 °C.

The compound `CC(=O)c1ccc(OCC(O)COc2cccc([N+](=O)[O-])c2)cc1O` (stereo unspecified) showed a melting point of 119 to 122 °C.

Compound `O=C1Nc2cccc(-c3cccc([N+](=O)[O-])c3)c2/C1=C/c1ccc[nH]1` came in with a melting point of 197 to 199 °C.

`CC1(COCCCCCCOc2ccc(C(=O)O)cc2)COC1` registered a melting point of 58.5 °C.

For the compound `CC(=O)N(c1cccc(Br)c1)c1ncnc2ccc(N3C(=O)C=CC3=O)cc12`, the melting point is 174 to 175 °C.

In the case of `CCCC(=O)c1cnc2c(OCCCN(C)C)cccc2c1Nc1ccc(F)cc1C`, the melting point lay within 99 to 100 °C.

For `Cc1cc(Nc2cc(-c3ccccc3)nc3ccccc23)[nH]n1`, the melting point was in the range of 242 to 244 °C.

In turn, `CCOC(=O)c1cc(O)c(-c2ccccc2)c([N+](=O)[O-])c1` returned a melting point of 128 to 130 °C.

Compound `C[C@@H](CO)COc1ccc(-c2ccc(Cl)nn2)cc1` returned a melting point of 134 to 138 °C.

In the case of `COc1c2c(cc3ccccc13)C(=O)NC2=O`, the melting point lay in the range of 216 to 220 °C.

For `CC(=O)N1CCC(OC(CO)c2ccccc2)CC1` (stereo unspecified), the melting point is 92 to 94 °C.

For the compound `CN1CCC(=Cc2cc(C(C)(C)C)c(O)c(C(C)(C)C)c2)C1=O`, the melting point stood at 185 °C.

Take `O=C(O)Cc1cccc([N+](=O)[O-])c1[N+](=O)[O-]`: the melting point lay within 209 to 215 °C.

Consider `Oc1ccc2c(c1)COc1c-2cc2ccc(O)cc2c1-c1ccc(F)c(F)c1`, for which the melting point lay in the range of 235 to 237 °C.

Compound `CC(=S)OC1CCN(C(=O)OCc2ccc([N+](=O)[O-])cc2)CC1` displayed a melting point of 106 to 107 °C.

Compound `Nc1ccc(C2=NN=C(c3ccccn3)N(C(=O)c3ccccc3)N2)nc1` showed a melting point of 223 to 225 °C.

Turning to `CCNC(=O)c1ccc(N2CCN(Cc3cnc4c(c3)NC(=O)[C@@H]3CSCCN43)CC2)cc1`, the melting point was found to be 289 °C.

Turning to `Cc1cc2ncccn2n1`, the melting point lay in the range of 54 to 57 °C.

On to `CSC1(C)C(=O)Nc2ccc(C3=NNC(=O)SC3C)cc21` (stereo unspecified), for which the melting point is 250 °C.

Consider `O=C(O)c1ccc(C(Cl)=C(Cl)Cl)cn1`, for which the melting point lay within 158 to 159 °C.

Turning to `Oc1ccc(C2CCC3(CC2)OCCO3)cc1`, the melting point was in the range of 152 to 153 °C.

Compound `CC(=O)NC1=NCC(c2ccccc2)CN1` (stereo unspecified) returned a melting point of 246 to 249 °C.

`Cc1cccc(N2CCOCC2)c1NC(N)=S` registered a melting point of 199 °C.

`CS(=O)(=O)c1ccc(-c2cnn(-c3ccc(F)cc3)c(=O)c2OCC2CC2)cc1`: the melting point was 166 to 167 °C.

For the compound `O=S1(=O)NC(C2CCCCC2)=Nc2cccc(-c3ccccn3)c21`, the melting point was 200 to 203 °C.

Compound `CCCN(c1ccncc1)n1ccc2cc(OC(=O)NC(C)C)ccc21` registered a melting point of 131 to 133 °C.

In turn, `CCOP(=O)(/C=C/c1cn(-c2ccccc2)nc1OCc1ccc(OCc2nc(-c3cccnc3)oc2C)c(OC)c1)OCC` had a melting point of 128 to 129 °C.

Turning to `CCOC(=O)c1cc2c(F)ccc(Cl)c2s1`, the melting point is 63 to 64 °C.

In turn, `CCOC(=O)c1[nH]c2cc(Cl)cc(Cl)c2c1NCC(=O)OCCCC(=O)c1ccccc1` yielded a melting point of 139 to 140 °C.

`CCOC(=O)CCc1cc(OC)ccc1C(=O)CCCNC(C)=O`: the melting point was 59 to 61 °C.

`CC12CCC(=O)C=C1CCC1C2C2CC3(C(O)O2)C(C(=O)COC(=O)CC(CC(=O)O)c2ccc(O)cc2)CCC13` (stereo unspecified) returned a melting point of 145 to 152 °C.

In turn, `CN(C)C(=S)Oc1ccc(C(=O)c2ccc(C#N)cc2)cc1` registered a melting point of 162 °C.

`Fc1ccc(OCc2cccc(Oc3ccnc(Cl)c3)n2)cc1` had a melting point of 103 °C.

With `CCCc1cc(=O)n(-c2cc(OC(C)C)c(Cl)cc2F)c(=O)n1C`, the melting point was in the range of 115 to 117 °C.

`CCOC(=O)c1cncc(C(=O)OCC)c1` returned a melting point of 42 to 44 °C.

`O=S(=O)(F)c1cc(Cl)c(Cl)cc1Cl` gave a melting point of 80 to 83 °C.

On to `CC(=O)SCCC(=O)N1C(C(=O)O)CC2CCCCC21` (stereo unspecified), for which the melting point was in the range of 131 to 133 °C.

Consider `COc1cc2cc([N+](=O)[O-])c(OCc3ccccc3)cc2oc1=O`, for which the melting point lay in the range of 226 to 228 °C.

In turn, `CC(=O)N1CCC(C(=NN)c2ccc(F)cc2F)CC1` showed a melting point of 139 to 142 °C.

Take `CCOC(=O)c1cn(CCc2ccc(O)cc2)c2cc(C3CC3)nn2c1=O`: the melting point was 95 to 100 °C.

Regarding `O=C(NC(=O)c1c(F)cccc1Cl)Nc1cnc(Oc2ccc(Cl)c3c2CCCC3)c(Cl)c1`, the melting point amounted to 244 °C.

For `Cc1cccc(C)c1-c1cc(O)c(SCc2ccccc2)c(=O)o1`, the melting point fell in the range of 140 to 143 °C.

As to `Cc1nnc(-c2ccnc3[nH]c(CCc4ccccc4)cc23)o1`, the melting point was 210 °C.

`COc1cc(-c2ccc(C)cc2)c(C(C)=NOCc2ccc([N+](=O)[O-])cc2)cc1O` came in with a melting point of 106 to 109 °C.

`OCCc1nccn1CCCc1ccc(O)cc1`: the melting point was 116 to 117 °C.

Take `CC(=O)ON1Cc2ccccc2C1=O`: the melting point was 69 to 71 °C.

`COc1ccc(C2(O)CC=C(c3ccncc3)N(C)C2=O)cc1` (stereo unspecified): the melting point was in the range of 224 to 226 °C.

The compound `COC(=O)CCn1c(=O)n(CCN2CCN(c3ccc(F)cc3)CC2)c(=O)c2cscc21` registered a melting point of 165 to 166 °C.

Turning to `COC(=O)[C@@H](Cc1ccccc1)NC(=O)Nc1n[nH]c(=S)s1`, the melting point is 110 °C.

As for `O=C(O)CCCCCCc1cccc(-c2nc(=O)c3ccccc3s2)n1`, the melting point was 149 to 151 °C.

In the case of `Cc1nc(-c2ccccc2)c(C)c(=O)o1`, the melting point came to 68 °C.

The compound `c1cn(-c2nc(N3CCOCC3)nc(N3CCOCC3)n2)cn1` displayed a melting point of 248 to 250 °C.

`CCCCOc1c2ccccc2c(C=O)c2ccccc12` yielded a melting point of 65 to 67 °C.

In the case of `CC1(C)CC(c2ccccn2)c2ccccc2O1` (stereo unspecified), the melting point lay within 99 to 101 °C.

`CCCOc1ccc(C(=O)C=CC(=O)O)cc1OC` showed a melting point of 136 °C.

Turning to `O=C(NC(O)C(=O)O)OCc1ccccc1` (stereo unspecified), the melting point is 194 to 198 °C.

In the case of `CC1(C)CC(=O)C(C(=O)Nc2ccc(C(F)(F)F)cc2)C(=O)O1` (stereo unspecified), the melting point stood at 176 °C.

Regarding `CCCOc1ccc(C2=NN(C(=O)Nc3ccc(OC(F)(F)F)cc3)CC2N(C)C(=O)OC)cc1` (stereo unspecified), the melting point was 153 to 155 °C.

With `Cc1cc2c(NCc3ccc4c(c3)OCO4)nc(-c3ccc(C(=O)O)cc3)nc2s1`, the melting point is > 250 °C.

In the case of `CN1CCN(c2cccc3ccc(OS(=O)(=O)C(F)(F)F)cc23)CC1`, the melting point lay within 70 to 71 °C.

For the compound `O=C(N[C@H]1CC[C@H](CCN2CCN(c3nccc4c3OCC4)CC2)CC1)c1ccc(-c2ccccc2)cc1`, the melting point came to 220 °C.

Regarding `COc1ccccc1-n1c(=O)[nH]c2c(C(N)=O)nc(-c3ccc(C#N)cc3)nc21`, the melting point was 335 to 338 °C.

Consider `COc1ccccc1Nc1nc(-c2ccccn2)cs1`, for which the melting point fell in the range of 165 to 166 °C.

`COC(=O)c1c(Cl)cc(Cl)cc1NC(=O)CSc1ccc(N)cc1` had a melting point of 114 to 116 °C.

Compound `CC1(C)CCCN(C(=O)CN2C(=O)C(NC(=O)Nc3cccc(C(=O)OC(C)(C)C)c3)C(=O)N(c3ccccc3F)c3ccccc32)C1` (stereo unspecified) had a melting point of 170 °C.

As for `CC(C)(C)C(=O)Nc1cccc(-c2ccnc3c(C(=O)c4ccco4)cnn23)c1`, the melting point was 203 to 204 °C.

`CC(C)CN1C(=O)CC(C)(C)CC1=O`: the melting point was in the range of 48 to 52 °C.

As for `O=S1(=O)CCC=C(O)c2cc(Cl)ccc21`, the melting point was 166 to 168 °C.

For orientation: melting point means the temperature, or range, at which the solid turns liquid.
